According to patent US6555091B1, “Polypeptide capable of reacting with antibodies of patients suffering from multiple sclerosis and uses” (Bio Merieux, priority 1997, dated 2003):

Tested on: IgM of sera from MS patients and healthy individuals
Experiment: ELISA of biotinylated synthetic peptide, IgM response of individual human sera
Assay type: binding
Parameters: key to LINE (mark: serum recognizes the peptide): X: 7 sera out of 11 recognize this peptide
Conditions: 1/100; for LINE (mark: serum recognizes the peptide) / OD 1 / OD 2 / OD 3 / MEAN: IgM
Experimental: Depending on the information obtained from the preceding examples, the hexapeptides SEQ ID NO: 3 and SEQ ID NO: 4 were synthesized and biotinylated according to the method described in Patent Application No. EP 93420183 with the following modifications: the peptide still bound to the resin is selectively deprotected at the N-terminal position. After overnight incubation with the biotin-NHS at 50% in DMF, the peptide is then cleaved from the resin and treated as described in the patent cited above.
The wells of a Maxisorb (trade name, Nunc) microtiter plate are saturated with 100 μl of a 50 mM NaHCO3 solution, pH 9.6, containing 10 μg/ml of streptavidin for 2 hours at 37° C. The plate is washed with TBS/0.05% Tween 20 buffer. The wells are then saturated with 250 μl of wash buffer supplemented with 10% goat serum for 1 hour at 37° C. and then washed as described above.
The IgM response is determined by addition of a 1/4000 solution of mouse monoclonal antibody anti-alkaline phosphatase-labeled human M immunoglobulin conjugate (bioMérieux Ac 5A10D5). After incubation at 37° C. for one hour the plate is again washed and the p-nitrophenyl phosphate substrate at 1 mg/ml in an […] of diethanolamine, pH 9.8, containing 1 mM MgCl2, is added. The reaction is stopped after 30 minutes by the addition of 50 μl of 3N sodium hydroxide solution. The optical density is read at 405 nm.
This unit was therefore also synthesized and biotinylated.

Substance: LAVRHD [SEQ ID NO: 8]
- LINE (mark: serum recognizes the peptide) (serum 33/6 (MS+, remission)): X
- OD 1 (serum 33/6 (MS+, remission)): 516 optical density (×1000)
- OD 2 (serum 33/6 (MS+, remission)): 529 optical density (×1000)
- OD 3 (serum 33/6 (MS+, remission)): 481 optical density (×1000)
- MEAN (serum 33/6 (MS+, remission), (mean less Control 1, 173)): 336 optical density (×1000)
- MEAN (serum 33/6 (MS+, remission), MEAN): 509 optical density (×1000)
- LINE (mark: serum recognizes the peptide) (serum 33/8 (MS+, remission)): X
- OD 1 (serum 33/8 (MS+, remission)): 609 optical density (×1000)
- OD 2 (serum 33/8 (MS+, remission)): 512 optical density (×1000)
- OD 3 (serum 33/8 (MS+, remission)): 568 optical density (×1000)
- MEAN (serum 33/8 (MS+, remission), (mean less Control 1, 173)): 390 optical density (×1000)
- MEAN (serum 33/8 (MS+, remission), MEAN): 563 optical density (×1000)
- LINE (mark: serum recognizes the peptide) (serum 33/18 (MS+, remission)): X
- OD 1 (serum 33/18 (MS+, remission)): 277 optical density (×1000)
- OD 2 (serum 33/18 (MS+, remission)): 262 optical density (×1000)
- OD 3 (serum 33/18 (MS+, remission)): 255 optical density (×1000)
- MEAN (serum 33/18 (MS+, remission), (mean less Control 1, 173)): 92 optical density (×1000)
- MEAN (serum 33/18 (MS+, remission), MEAN): 265 optical density (×1000)
- OD 1 (serum No. 12 (MS−, healthy)): 222 optical density (×1000)
- OD 2 (serum No. 12 (MS−, healthy)): 175 optical density (×1000)
- OD 3 (serum No. 12 (MS−, healthy)): 163 optical density (×1000)
- MEAN (serum No. 12 (MS−, healthy), (mean less Control 1, 173)): 14 optical density (×1000)
- MEAN (serum No. 12 (MS−, healthy), MEAN): 187 optical density (×1000)
- OD 1 (serum No. 13 (MS−, healthy)): 145 optical density (×1000)
- OD 2 (serum No. 13 (MS−, healthy)): 154 optical density (×1000)
- OD 3 (serum No. 13 (MS−, healthy)): 196 optical density (×1000)
- MEAN (serum No. 13 (MS−, healthy), (mean less Control 1, 173)): −6 optical density (×1000)
- MEAN (serum No. 13 (MS−, healthy), MEAN): 165 optical density (×1000)
- OD 1 (serum No. 14 (MS−, healthy)): 320 optical density (×1000)
- OD 2 (serum No. 14 (MS−, healthy)): 165 optical density (×1000)
- OD 3 (serum No. 14 (MS−, healthy)): 143 optical density (×1000)
- MEAN (serum No. 14 (MS−, healthy), (mean less Control 1, 173)): 36 optical density (×1000)
- MEAN (serum No. 14 (MS−, healthy), MEAN): 209 optical density (×1000)
- OD 1 (serum No. 15 (MS−, healthy)): 254 optical density (×1000)
- OD 2 (serum No. 15 (MS−, healthy)): 205 optical density (×1000)
- OD 3 (serum No. 15 (MS−, healthy)): 173 optical density (×1000)
- MEAN (serum No. 15 (MS−, healthy), (mean less Control 1, 173)): 38 optical density (×1000)
- MEAN (serum No. 15 (MS−, healthy), MEAN): 211 optical density (×1000)
- LINE (mark: serum recognizes the peptide) (serum QS 2 (MS+, remission)): X
- OD 1 (serum QS 2 (MS+, remission)): 281 optical density (×1000)
- OD 2 (serum QS 2 (MS+, remission)): 280 optical density (×1000)
- OD 3 (serum QS 2 (MS+, remission)): 231 optical density (×1000)
- MEAN (serum QS 2 (MS+, remission), (mean less Control 1, 173)): 91 optical density (×1000)
- MEAN (serum QS 2 (MS+, remission), MEAN): 264 optical density (×1000)
- OD 1 (serum QS 3 (MS+, remission)): 191 optical density (×1000)
- OD 2 (serum QS 3 (MS+, remission)): 169 optical density (×1000)
- OD 3 (serum QS 3 (MS+, remission)): 164 optical density (×1000)
- MEAN (serum QS 3 (MS+, remission), (mean less Control 1, 173)): 2 optical density (×1000)
- MEAN (serum QS 3 (MS+, remission), MEAN): 175 optical density (×1000)
- LINE (mark: serum recognizes the peptide) (serum QS 4 (MS+, remission)): X
- OD 1 (serum QS 4 (MS+, remission)): 374 optical density (×1000)
- OD 2 (serum QS 4 (MS+, remission)): 361 optical density (×1000)
- OD 3 (serum QS 4 (MS+, remission)): 346 optical density (×1000)
- MEAN (serum QS 4 (MS+, remission), (mean less Control 1, 173)): 187 optical density (×1000)
- MEAN (serum QS 4 (MS+, remission), MEAN): 360 optical density (×1000)
- OD 1 (serum QS 6 (MS+, remission)): 156 optical density (×1000)
- OD 2 (serum QS 6 (MS+, remission)): 147 optical density (×1000)
- OD 3 (serum QS 6 (MS+, remission)): 151 optical density (×1000)
- MEAN (serum QS 6 (MS+, remission), (mean less Control 1, 173)): −22 optical density (×1000)
- MEAN (serum QS 6 (MS+, remission), MEAN): 151 optical density (×1000)
- LINE (mark: serum recognizes the peptide) (serum QS 7 (MS+, remission)): X
- OD 1 (serum QS 7 (MS+, remission)): 311 optical density (×1000)
- OD 2 (serum QS 7 (MS+, remission)): 290 optical density (×1000)
- OD 3 (serum QS 7 (MS+, remission)): 164 optical density (×1000)
- MEAN (serum QS 7 (MS+, remission), (mean less Control 1, 173)): 82 optical density (×1000)
- MEAN (serum QS 7 (MS+, remission), MEAN): 265 optical density (×1000)
- LINE (mark: serum recognizes the peptide) (serum QS 8 (MS+, remission)): X
- OD 1 (serum QS 8 (MS+, remission)): 305 optical density (×1000)
- OD 2 (serum QS 8 (MS+, remission)): 221 optical density (×1000)
- OD 3 (serum QS 8 (MS+, remission)): 265 optical density (×1000)
- MEAN (serum QS 8 (MS+, remission), (mean less Control 1, 173)): 91 optical density (×1000)
- MEAN (serum QS 8 (MS+, remission), MEAN): 264 optical density (×1000)
- OD 1 (serum QS 11 (MS+, remission)): 164 optical density (×1000)
- OD 2 (serum QS 11 (MS+, remission)): 160 optical density (×1000)
- OD 3 (serum QS 11 (MS+, remission)): 139 optical density (×1000)
- MEAN (serum QS 11 (MS+, remission), (mean less Control 1, 173)): −19 optical density (×1000)
- MEAN (serum QS 11 (MS+, remission), MEAN): 154 optical density (×1000)
- OD 1 (serum QS 12 (MS+, remission)): 123 optical density (×1000)
- OD 2 (serum QS 12 (MS+, remission)): 57 optical density (×1000)
- OD 3 (serum QS 12 (MS+, remission)): 148 optical density (×1000)
- MEAN (serum QS 12 (MS+, remission), (mean less Control 1, 173)): −64 optical density (×1000)
- MEAN (serum QS 12 (MS+, remission), MEAN): 109 optical density (×1000)
- MS sera recognizing the peptide, IgM response (same panel of 11 MS remission sera): 7 sera out of 11
